Experiments:
Assay type in all cases: functional
[1] = organism: Oryctolagus cuniculus; test: Inhibitory activity against PAF (4e-10 M) induced aggregation of rabbit platelet at 2.1E-4 M concentration
[2] = organism: Oryctolagus cuniculus; test: Inhibitory concentration against PAF (8E-10M) induced aggregation of rabbit platelet at 2.1E-4 M concentration
[3] = organism: Oryctolagus cuniculus; test: Inhibitory activity against PAF (4e-10 M) induced aggregation of rabbit platelet at 7.5E-5 M concentration
[4] = organism: Oryctolagus cuniculus; test: Inhibitory activity against PAF (8E-10M) induced aggregation of rabbit platelet at 2.1E-4 M concentration
[5] = organism: Oryctolagus cuniculus; test: Inhibitory activity against PAF (4e-10 M) induced aggregation of rabbit platelet at 3E-5 M concentration
[6] = organism: Oryctolagus cuniculus; test: Inhibitory activity against PAF (4e-10 M) induced aggregation of rabbit platelet at 1.5E-6 M concentration
[7] = organism: Oryctolagus cuniculus; test: Inhibitory activity against PAF (4e-10 M) induced aggregation of rabbit platelet at 1.5E-5 M concentration

`CCCCC/C=C\C/C=C\C/C=C\C/C=C\CCCC(=O)O` [ARACHIDONIC ACID] was tested, and the Inhibition [1] was 100%, the IC50 [2] was ~60 µM and the Inhibition [3] was 61%. It also gave an Inhibition [4] of 100%, an Inhibition [5] of 24% and an Inhibition [6] of 0%. It also gave an Inhibition [7] of 6%.
